# Laboratory results published in ChEMBL document CHEMBL1201862, “PubChem BioAssay data set” (2004).
#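 Five concentrations, 48 hours, 96-well plates. Abbreviation: GI50, concentration required for 50% inhibition of growth.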 The source made the active and inactive calls. Cut-off read from the data, not from the text of the source: active = GI50 up to about 1.1 µM and inactive = higher.
# Columns and labels:
# Assay in all cases: DTP human tumour cell line panel, 48 h
# UO-31 = tested on: UO-31
# SK-MEL-5 = tested on: SK-MEL-5
# HCT-15 = tested on: HCT-15
# SR = tested on: SR
# NCI-H23 = tested on: NCI-H23
# SF-268 = tested on: SF-268
# HOP-62 = tested on: HOP-62
# NCI-H522 = tested on: NCI-H522
# UACC-62 = tested on: UACC-62
# OVCAR-8 = tested on: OVCAR-8
# RPMI-8226 = tested on: RPMI-8226
# SF-539 = tested on: SF-539
# A498 = tested on: A498
# SW-620 = tested on: SW-620
# SK-MEL-28 = tested on: SK-MEL-28
# EKVX = tested on: EKVX
# SN12C = tested on: SN12C
# Malme-3M = tested on: Malme-3M
# LOX IMVI = tested on: LOX IMVI
# HCC 2998 = tested on: HCC 2998
# MCF7 = tested on: MCF7
# TK-10 = tested on: TK-10
# COLO 205 = tested on: COLO 205
# M14 = tested on: M14
# SF-295 = tested on: SF-295
# MDA-MB-435 = tested on: MDA-MB-435
# HCT-116 = tested on: HCT-116
# NCI-H226 = tested on: NCI-H226
# SNB-75 = tested on: SNB-75
# IGROV-1 = tested on: IGROV-1
# MDA-MB-231 = tested on: MDA-MB-231
# Hs-578T = tested on: Hs-578T
# 786-0 = tested on: 786-0
# MOLT-4 = tested on: MOLT-4
# MDA-N = tested on: MDA-N
# CCRF-CEM = tested on: CCRF-CEM
# PC-3 = tested on: PC-3
# KM12 = tested on: KM12
# SNB-19 = tested on: SNB-19
# BT-549 = tested on: BT-549
# DU-145 = tested on: DU-145
# UACC-257 = tested on: UACC-257
# T47D = tested on: T47D
# SK-OV-3 = tested on: SK-OV-3
# ACHN = tested on: ACHN
# HL-60 = tested on: HL-60
# A549 = tested on: A549
# CAKI-1 = tested on: CAKI-1
# NCI-H460 = tested on: NCI-H460
# HT-29 = tested on: HT-29
# K562 = tested on: K562
# SK-MEL-2 = tested on: SK-MEL-2
# HOP-92 = tested on: HOP-92
# NCI/ADR-RES = tested on: NCI/ADR-RES
# OVCAR-3 = tested on: OVCAR-3
# OVCAR-5 = tested on: OVCAR-5
# OVCAR-4 = tested on: OVCAR-4
# U-251 = tested on: U-251
# RXF 393 = tested on: RXF 393
structure (smiles),measurement,setting,value
COc1ccc(C2SC(=N)Nc3c2c(C)nn3C(=O)Cc2ccccc2)cc1 (stereo unspecified),GI50,UO-31,> 100 µM (inactive)
same,GI50,SK-MEL-5,> 100 µM (inactive)
same,GI50,HCT-15,> 100 µM
same,GI50,SR,> 100 µM (inactive)
same,GI50,NCI-H23,> 100 µM (inactive)
same,GI50,SF-268,> 100 µM (inactive)
same,GI50,HOP-62,> 100 µM (inactive)
same,GI50,NCI-H522,> 100 µM (inactive)
same,GI50,UACC-62,> 100 µM (inactive)
same,GI50,OVCAR-8,> 100 µM (inactive)
same,GI50,RPMI-8226,> 100 µM (inactive)
same,GI50,SF-539,> 100 µM (inactive)
same,GI50,A498,> 100 µM (inactive)
same,GI50,SW-620,> 100 µM (inactive)
same,GI50,SK-MEL-28,> 100 µM (inactive)
same,GI50,EKVX,> 100 µM (inactive)
same,GI50,SN12C,> 100 µM (inactive)
same,GI50,Malme-3M,> 100 µM (inactive)
same,GI50,LOX IMVI,> 100 µM (inactive)
same,GI50,HCC 2998,> 100 µM (inactive)
same,GI50,MCF7,> 100 µM (inactive)
same,GI50,TK-10,> 100 µM (inactive)
same,GI50,COLO 205,> 100 µM (inactive)
same,GI50,M14,> 100 µM (inactive)
same,GI50,SF-295,> 100 µM (inactive)
same,GI50,MDA-MB-435,> 100 µM (inactive)
same,GI50,HCT-116,> 100 µM (inactive)
same,GI50,NCI-H226,> 100 µM (inactive)
same,GI50,SNB-75,10.9 µM (inactive)
same,GI50,IGROV-1,> 100 µM (inactive)
same,GI50,MDA-MB-231,> 100 µM (inactive)
same,GI50,Hs-578T,> 100 µM (inactive)
same,GI50,786-0,> 100 µM (inactive)
same,GI50,MOLT-4,> 100 µM (inactive)
same,GI50,MDA-N,> 100 µM (inactive)
same,GI50,CCRF-CEM,> 100 µM (inactive)
same,GI50,PC-3,> 100 µM (inactive)
same,GI50,KM12,> 100 µM (inactive)
same,GI50,SNB-19,> 100 µM (inactive)
same,GI50,BT-549,> 100 µM (inactive)
same,GI50,DU-145,> 100 µM (inactive)
same,GI50,UACC-257,> 100 µM (inactive)
same,GI50,T47D,> 100 µM (inactive)
same,GI50,SK-OV-3,> 100 µM (inactive)
same,GI50,ACHN,> 100 µM (inactive)
same,GI50,HL-60,> 100 µM (inactive)
same,GI50,A549,> 100 µM (inactive)
same,GI50,CAKI-1,> 100 µM (inactive)
same,GI50,NCI-H460,> 100 µM (inactive)
same,GI50,HT-29,> 100 µM (inactive)
same,GI50,K562,> 100 µM (inactive)
CCCCCC(O)[C@H]1C(=O)C[C@@H](O[Si](C)(C)C(C)(C)C)[C@@H]1/C=C/CCOCc1ccccc1 (stereo partly specified),GI50,SK-MEL-2,15.5 µM (inactive)
same,GI50,UO-31,14.5 µM (inactive)
same,GI50,HOP-92,12.4 µM (inactive)
same,GI50,SK-MEL-5,16.6 µM (inactive)
same,GI50,HCT-15,10.6 µM
same,GI50,NCI-H23,16.2 µM (inactive)
same,GI50,SF-268,16.3 µM (inactive)
same,GI50,HOP-62,17.3 µM (inactive)
same,GI50,NCI-H522,3.88 µM (inactive)
same,GI50,UACC-62,11.8 µM (inactive)
same,GI50,OVCAR-8,13.8 µM (inactive)
same,GI50,RPMI-8226,17 µM (inactive)
same,GI50,SF-539,4.23 µM (inactive)
same,GI50,A498,17.8 µM (inactive)
same,GI50,SW-620,13.1 µM (inactive)
same,GI50,SK-MEL-28,15.5 µM (inactive)
same,GI50,EKVX,17.4 µM (inactive)
same,GI50,SN12C,19.1 µM (inactive)
same,GI50,Malme-3M,15.3 µM (inactive)
same,GI50,LOX IMVI,10.9 µM (inactive)
same,GI50,HCC 2998,14.9 µM (inactive)
same,GI50,MCF7,9.02 µM (inactive)
same,GI50,NCI/ADR-RES,12.1 µM (inactive)
same,GI50,TK-10,15.1 µM (inactive)
same,GI50,COLO 205,16 µM (inactive)
same,GI50,M14,12.6 µM (inactive)
same,GI50,SF-295,2.39 µM (inactive)
same,GI50,MDA-MB-435,7.31 µM (inactive)
same,GI50,HCT-116,6.9 µM (inactive)
same,GI50,NCI-H226,14 µM (inactive)
same,GI50,SNB-75,17.8 µM (inactive)
same,GI50,OVCAR-3,13.7 µM (inactive)
same,GI50,IGROV-1,12.8 µM (inactive)
same,GI50,MDA-MB-231,29.2 µM (inactive)
same,GI50,Hs-578T,7.19 µM (inactive)
same,GI50,OVCAR-5,17.9 µM (inactive)
same,GI50,786-0,11.4 µM (inactive)
same,GI50,OVCAR-4,12.6 µM (inactive)
same,GI50,MOLT-4,4.46 µM (inactive)
same,GI50,MDA-N,9.51 µM (inactive)
same,GI50,CCRF-CEM,> 55.5 µM (inactive)
same,GI50,PC-3,12.1 µM (inactive)
same,GI50,KM12,5.41 µM (inactive)
same,GI50,SNB-19,15 µM (inactive)
same,GI50,BT-549,8.07 µM (inactive)
same,GI50,DU-145,20 µM (inactive)
same,GI50,UACC-257,13.3 µM (inactive)
same,GI50,T47D,13.6 µM (inactive)
same,GI50,SK-OV-3,16.8 µM (inactive)
same,GI50,ACHN,13.5 µM (inactive)
same,GI50,HL-60,2.35 µM (inactive)
same,GI50,A549,18 µM (inactive)
same,GI50,CAKI-1,8.47 µM (inactive)
same,GI50,U-251,12.1 µM (inactive)
same,GI50,NCI-H460,16.9 µM (inactive)
same,GI50,RXF 393,12.2 µM (inactive)
same,GI50,HT-29,9.59 µM (inactive)
same,GI50,K562,> 36.5 µM (inactive)
C/C=C\C(CC(=O)NCCC1CN(S(=O)(=O)c2ccc(C)cc2)c2ccccc21)CC(=O)OC (stereo unspecified),GI50,SK-MEL-2,> 100 µM (inactive)
same,GI50,UO-31,> 100 µM (inactive)
same,GI50,HOP-92,> 100 µM (inactive)
same,GI50,SK-MEL-5,> 100 µM (inactive)
same,GI50,HCT-15,> 100 µM
same,GI50,NCI-H23,> 100 µM (inactive)
same,GI50,SF-268,> 100 µM (inactive)
same,GI50,HOP-62,> 100 µM (inactive)
same,GI50,NCI-H522,> 100 µM (inactive)
same,GI50,UACC-62,> 100 µM (inactive)
same,GI50,OVCAR-8,> 100 µM (inactive)
same,GI50,RPMI-8226,> 100 µM (inactive)
same,GI50,A498,> 100 µM (inactive)
same,GI50,SW-620,> 100 µM (inactive)
same,GI50,SK-MEL-28,> 100 µM (inactive)
same,GI50,EKVX,> 100 µM (inactive)
same,GI50,Malme-3M,> 100 µM (inactive)
same,GI50,HCC 2998,> 100 µM (inactive)
same,GI50,MCF7,> 100 µM (inactive)
same,GI50,NCI/ADR-RES,> 100 µM (inactive)
same,GI50,TK-10,> 100 µM (inactive)
same,GI50,COLO 205,> 100 µM (inactive)
same,GI50,M14,> 100 µM (inactive)
same,GI50,SF-295,> 100 µM (inactive)
same,GI50,MDA-MB-435,> 100 µM (inactive)
same,GI50,HCT-116,> 100 µM (inactive)
same,GI50,SNB-75,> 100 µM (inactive)
same,GI50,OVCAR-3,> 100 µM (inactive)
same,GI50,IGROV-1,> 100 µM (inactive)
same,GI50,MDA-MB-231,> 100 µM (inactive)
same,GI50,Hs-578T,> 100 µM (inactive)
same,GI50,OVCAR-5,> 100 µM (inactive)
same,GI50,786-0,> 100 µM (inactive)
same,GI50,OVCAR-4,> 100 µM (inactive)
same,GI50,MOLT-4,> 100 µM (inactive)
same,GI50,MDA-N,> 100 µM (inactive)
same,GI50,PC-3,> 100 µM (inactive)
same,GI50,KM12,> 100 µM (inactive)
same,GI50,SNB-19,> 100 µM (inactive)
same,GI50,BT-549,> 100 µM (inactive)
same,GI50,DU-145,> 100 µM (inactive)
same,GI50,UACC-257,> 100 µM (inactive)
same,GI50,T47D,> 100 µM (inactive)
same,GI50,SK-OV-3,> 100 µM (inactive)
same,GI50,ACHN,> 100 µM (inactive)
same,GI50,A549,> 100 µM (inactive)
same,GI50,CAKI-1,> 100 µM (inactive)
same,GI50,U-251,> 100 µM (inactive)
same,GI50,NCI-H460,> 100 µM (inactive)
same,GI50,RXF 393,> 100 µM (inactive)
same,GI50,HT-29,> 100 µM (inactive)
same,GI50,K562,> 100 µM (inactive)
